According to patent US10344330B2, “Glatiramer acetate response biomarker mRNA potency assay” (Mylan Inc., priority 2013, dated 2019):
Where “and” joins values, the source holds several entries; their conditions need not be identical. Identical values can stand only once. Like-named read-outs stand apart in the source and are kept apart here.

Columns and labels:
Format in all cases: cell-based, mouse
[1] = tested on: mIL-4 mRNA in primary LN cells; assay: mIL-4 mRNA by real-time PCR in stimulated LN cells of immunized (SJL/J×BALB/C)F1 mice (Example I); conditions: for mIL-4 mRNA Level: Experiment 1, GA-immunized (SJL/J×BALB/C)F1; for mIL-4 mRNA: reference 18S rRNA
Procedure: For each of the three experiments summarized in Table 1, female (SJL/J×BALB/C) F1 hybrid (Jackson Laboratory) mice were immunized by footpad injection with either 250 μg GMA (Mylan Pharmaceuticals, Inc.) and CFA (Sigma Aldrich), or Mannitol and CFA (as a negative control). The GA solution was diluted to 5 mg/mL with Dulbecco's Phosphate-buffered saline. A dose solution was then prepared by mixing the diluted GA solution (5 mg/mL) and CFA (1:1) until well-emulsified. Each mouse received a total injection volume of 0.1 mL (250 μg GA). Animals were immunized on Day 0. Immunized animals were sacrificed via cervical dislocation on Day 10 following immunization. […] The LN were washed 3 times with −5 mL of RPMI medium, and the LN cells isolated by pressing the LN with a syringe plunger. […] The cell suspension was centrifuged at about 200×g for 10 minutes at about 4° C. and re-suspended in ice cold enriched DCCM-1 medium. The LN cells (2.5×10^6 cells/cm^2) were plated in the wells of a 48-well tissue culture plate and stimulated with GA or controls.
Expression of cytokine mRNA was quantitatively analyzed using a Real-Time PCR system (7500, Applied Biosystems).
(DCCM1 from Beit Haemek Ltd.; Cat. No. 05 010 1A). There was no MBP treatment for the 2-hour groups.
Group 1B animals were female (SJL/J×BALB/C) F1 hybrid (Jackson Laboratory) mice immunized by footpad injection with either 250 μg GA and CFA, or Mannitol and CFA (as a negative control). A dose solution was prepared by mixing a diluted GA solution (5 mg/mL) and CFA (1:1). Each mouse received a total injection volume of […] (250 μg GA). Animals were immunized on Day 0. Immunized animals were sacrificed via cervical dislocation on Day 10 following immunization. Lymph nodes from immunized mice were removed and isolated. LN cells (2.5×10^6 cells/cm^2) were plated in the wells of a 48-well tissue culture plate for stimulation with GA.
(§1) Expression of cytokine mRNA was quantitatively analyzed 4 and 6 hours after using a Real-Time PCR system (7500, Applied Biosystems).

[2] = tested on: mIL-10 mRNA in primary LN cells; assay: mIL-10 mRNA by real-time PCR in stimulated LN cells of immunized (SJL/J×BALB/C)F1 mice (Example I)
Procedure: Animals were immunized on Day 0.
Each mouse received a total injection volume of […] (250 μg GA). Animals were immunized on Day 0. […] Lymph nodes from immunized mice were removed and isolated.
as §1

IL-5 mRNA in LN cells = assay: IL-5 mRNA by real-time PCR in LN cells of GA-immunized CD-1, BALB/cByJ, SJL/J mice (Example III); conditions: 6 hours
Procedure: On Day 0, mice were immunized with 250 μg GA (GMA, Mylan Pharmaceuticals, Inc.) and CFA. The GA solution (20 mg/mL) was diluted with Dulbecco's Phosphate-Buffered Saline to 5 mg/mL. The dosing formulation consisted of equal volumes of the diluted GA solution (5 mg/mL) and CFA solution, mixed until well-emulsified. Animals were weighed and allocated to groups. Animals were dosed by injection into four footpads. The injection volume per animal was 0.1 mL (about 10 μL into each front footpad, and 40 μL into each hind footpad).
Immunized animals were euthanized by cervical dislocation on Day 10 post-immunization. Lymph node cells were isolated from animals and treated with Myelin Basic Protein (MBP, a negative control), Concanavalin A (ConA, a positive control) or GA as shown in Table 16. Lymph nodes in the axillary and popliteal regions were removed aseptically in a purifier clean bench. […] The LN were then washed 3 times with −5 mL of RPMI medium, and isolated by pressing the LN with a syringe plunger. […] The cell suspension was centrifuged at about 200×g for 10 minutes at about 4° C. and re-suspended in ice cold enriched DCCM-1 medium. Cells were seeded in 96-well tissue culture plates.
LN cells isolated from GA-immunized animals were stimulated with GA (GMA, Mylan Pharmaceuticals, Inc.) at concentrations as indicated in Tables 16 and 17. A positive control was prepared by treating LN cells with 2.5 μg/mL concavalin A (ConA, a non-specific T cell stimulant). Myelin basic protein (MBP, 10 μg/mL) and enriched DCCM-1 medium served as negative controls. The cells from all groups each were stimulated with the same GA lot. Each reaction was set up in triplicate.
After incubation at about 37° C. in a humidified CO2 incubator for 6 hours, the cells were lysed for total RNA isolation. Total RNA was isolated from treated LN cells using SV 96 Total RNA Isolation System according to the manufacturer's protocol (Promega, Cat. #Z3500). Cells were washed once with Phosphate Buffered Saline (PBS) and lysed in RNA lysis buffer. The lysate was transferred to wells of the SV 96 binding plate. Samples were washed with RNA wash solution and treated with DNase. Total RNA was eluted with nuclease-free water from the binding plate.
After the reverse transcriptase reaction was completed, cDNA samples were used directly for real-time PCR to measure the response biomarker mRNA levels produced by the stimulated cells. […] All probes for target genes contained FAM dye, and probes for the internal control contained VIC®/MGB dye. Samples will be prepared and run in 96-well plates using a Real-Time PCR system (7500, Life Technologies). This system allows direct detection of PCR-product formation by measuring the increase in fluorescent emission continuously during the PCR reaction. A relative quantitation method was used to analyze changes in mouse IL-2, IL-4, IL-5, IL-10, IL-13, IFN-γ and TNF-α expression in GA-treated samples relative to the untreated control (enriched DCCM-1 treated) samples. The Real-Time PCR program was:
The levels of mouse cytokine amplicons (IL-2, IL-4, IL-5, IL-10, IL-13, mIFN-γ and TNF-α) were normalized to internal probe levels (GAPDH) from the same samples. The following equations were used to calculate the relative increase in response to GA stimulation compared to the control sample: ΔCT=CT_target−CT_reference ΔΔCT=−ΔCT_Treated−CT_VC

[3] = tested on: IL-1b secreted by LN cells; assay: IL-1b secretion by GA-stimulated LN cells, MSD 9-plex ELISA (Example II); conditions: for IL-1b secretion response ratio (treated cell medium to control DCCM1 medium): 21 hr
[4] = 2 hour post stimulation, GA 10, ConA 2.5 μg/mL
[5] = 4 hour post stimulation, GA 10, MBP 10, ConA 2.5 μg/mL
[6] = 6 hour post stimulation, GA 10, MBP 10, ConA 2.5 μg/mL
[7] = 24 hour post stimulation, GA 10, MBP 10, ConA 2.5 μg/mL
[8] = Group 1B (GA + CFA), 4 hours post-stimulation, GA 10, MBP 10, ConA 2.5 μg/mL
[9] = Group 1B (GA + CFA), 6 hours post-stimulation, GA 10, MBP 10, ConA 2.5 μg/mL
[10] = Group 2B (Mannitol + CFA), 4 hours post-stimulation, GA 10, MBP 10, ConA 2.5 μg/mL
[11] = Group 2B (Mannitol + CFA), 6 hours post-stimulation, GA 10, MBP 10, ConA 2.5 μg/mL

Substance: Concanavalin A [ConA, reference compound]
- mIL-4 mRNA Level [1, 4]: 35.7 fold change vs control
- mIL-4 mRNA Level [1, 5]: 47.6 fold change vs control
- mIL-4 mRNA Level [1, 6]: 52.2 fold change vs control
- mIL-4 mRNA Level [1, 7]: 6.1 fold change vs control
- mIL-4 mRNA [1, 8]: 27.1 fold change vs control
- mIL-4 mRNA [1, 9]: 12.8 fold change vs control
- mIL-4 mRNA [1, 10]: 37.3 fold change vs control
- mIL-4 mRNA [1, 11]: 56.2 fold change vs control
- mIL-10 mRNA ([2]; Group 1B (GA + CFA), 4 hours post-stimulation, GA 10, MBP 10, ConA 2.5 μg/mL, reference GAPDH): 2.3 fold change vs control
- mIL-10 mRNA ([2]; Group 1B (GA + CFA), 6 hours post-stimulation, GA 10, MBP 10, ConA 2.5 μg/mL, reference GAPDH): 1.2 fold change vs control
- mIL-10 mRNA ([2]; Group 2B (Mannitol + CFA), 4 hours post-stimulation, GA 10, MBP 10, ConA 2.5 μg/mL, reference GAPDH): 1.6 fold change vs control
- mIL-10 mRNA ([2]; Group 2B (Mannitol + CFA), 6 hours post-stimulation, GA 10, MBP 10, ConA 2.5 μg/mL, reference GAPDH): 3.1 fold change vs control
- IL-5 mRNA Expression (IL-5 mRNA in LN cells; Group 1C: CD-1, GA-immunized, stimulation 2.5 μg/mL): 19.1 fold change vs control
- IL-5 mRNA Expression (IL-5 mRNA in LN cells; Group 2C: BALB/cByJ, GA-immunized, stimulation 2.5 μg/mL): 9.1 fold change vs control
- IL-5 mRNA Expression (IL-5 mRNA in LN cells; Group 3C: SJL/J, GA-immunized, stimulation 2.5 μg/mL): 9.7 fold change vs control
- IL-1b secretion response ratio (treated cell medium to control DCCM1 medium) ([3]; BALB/cByJ, immunized GA Intraplantar): 11.73
- IL-1b secretion response ratio (treated cell medium to control DCCM1 medium) ([3]; BALB/cByJ, immunized GA Lower Limb): 8.70
- IL-1b secretion response ratio (treated cell medium to control DCCM1 medium) ([3]; C57BL10J, immunized GA Lower Limb): 1.42
- IL-1b secretion response ratio (treated cell medium to control DCCM1 medium) ([3]; CD-1, immunized GA Lower Limb): 2.86

Substance: L-glutamic acid polymer with L-alanine, L-lysine and L-tyrosine, acetate (salt) [GA]
- mIL-4 mRNA Level [1, 4]: 10.0 fold change vs control
- mIL-4 mRNA Level [1, 5]: 10.0 fold change vs control
- mIL-4 mRNA Level [1, 6]: 16.5 fold change vs control
- mIL-4 mRNA Level [1, 7]: 14.1 fold change vs control
- mIL-4 mRNA [1, 8]: 8.2 fold change vs control
- mIL-4 mRNA [1, 9]: 9.2 fold change vs control
- mIL-4 mRNA level increase vs DCCM-1-stimulated control ([1]; Group 1B, 4 and 6 hours (summary of Table 9)): at least 8 fold
- mIL-4 mRNA [1, 10]: 2.2 fold change vs control
- mIL-4 mRNA [1, 11]: 1.1 fold change vs control
- mIL-10 mRNA [2]: 1.7 fold change vs control and 1.4 fold change vs control and 1.2 fold change vs control and 0.9 fold change vs control
- IL-5 mRNA Expression (IL-5 mRNA in LN cells; Group 1C: CD-1, GA-immunized, stimulation 0.3 μg/mL): 1.0 fold change vs control
- IL-5 mRNA Expression (IL-5 mRNA in LN cells; Group 1C: CD-1, GA-immunized, stimulation 1 μg/mL): 1.8 fold change vs control
- IL-5 mRNA Expression (IL-5 mRNA in LN cells; Group 1C: CD-1, GA-immunized, stimulation 3 μg/mL): 3.2 fold change vs control
- IL-5 mRNA Expression (IL-5 mRNA in LN cells; Group 1C: CD-1, GA-immunized, stimulation 10 μg/mL): 5.4 fold change vs control
- IL-5 mRNA Expression (IL-5 mRNA in LN cells; Group 2C: BALB/cByJ, GA-immunized, stimulation 0.3 μg/mL): 0.5 fold change vs control
- IL-5 mRNA Expression (IL-5 mRNA in LN cells; Group 2C: BALB/cByJ, GA-immunized, stimulation 1 μg/mL): 1.6 fold change vs control
- IL-5 mRNA Expression (IL-5 mRNA in LN cells; Group 2C: BALB/cByJ, GA-immunized, stimulation 3 μg/mL): 2.3 fold change vs control
- IL-5 mRNA Expression (IL-5 mRNA in LN cells; Group 2C: BALB/cByJ, GA-immunized, stimulation 10 μg/mL): 3.5 fold change vs control
- IL-5 mRNA Expression (IL-5 mRNA in LN cells; Group 3C: SJL/J, GA-immunized, stimulation 0.3 μg/mL): 0.6 fold change vs control
- IL-5 mRNA Expression (IL-5 mRNA in LN cells; Group 3C: SJL/J, GA-immunized, stimulation 1 μg/mL): 2.1 fold change vs control
- IL-5 mRNA Expression (IL-5 mRNA in LN cells; Group 3C: SJL/J, GA-immunized, stimulation 3 μg/mL): 5.1 fold change vs control
- IL-5 mRNA Expression (IL-5 mRNA in LN cells; Group 3C: SJL/J, GA-immunized, stimulation 10 μg/mL): 4.3 fold change vs control
- IL-1β secretion, dose response to GA (in words) ([3]; BALB/cByJ and CD-1, primed by intraplantar injection): Dose response of IL-1β was detected
